# Measurements as given in patent publication US20240384350A1, “METHODS OF TREATING CANCER WITH KINASE INHIBITORS” (BOARD OF REGENTS, THE UNIVERSITY OF TEXAS SYSTEM, priority 2021, published 2024).
# How the values were obtained:
# Test in all cases: Ba/F3 drug screening, Cell Titer Glo, IC50 Mut/WT
# Type in all cases: cell-based
# EGFR I740dupIPVAK = conditions: Ba/F3 cells, EGFR I740dupIPVAK (PACC), Mut/WT
# Experimental: (§1) Data represent the ratio of the IC50 value for a given TKI for cells with a PACC EGFR mutation to the IC50 value for cells with wildtype EGFR.
# (§2) Ba/F3 cell generation, drug screening, and IC50 approximations. Ba/F3 cells were obtained as a gift from Dr. Gordon Mills (MD Anderson Cancer Center), and maintained in RPMI (Sigma) containing 10% FBS, 1% penicillin/streptomycin, and 10 ng/ml recombinant mIL-3 (R&D Biosystems). To establish stable Ba/F3 cell lines, Ba/F3 cells were transduced with retroviruses containing mutant EGFR plasmids for 12-24 hours.
# (§3) After 48-72 hours of transduction, 2 μg/ml puromycin (Invitrogen) was added to Ba/F3 cell lines in complete RPMI. To select for EGFR positive cell lines, cells were stained with PE-EGFR (Biolegend) and sorted by FACS. After sorting, EGFR positive cells were maintained in RPMI containing 10% FBS, 1% penicillin/streptomycin, and 1 ng/ml EGF to support cell viability. Drug screening was performed as previously described^41,42. Shortly, cells were plated in 384-well plates (Greiner Bio-One) at 2000-3000 cells per well in technical triplicate. Seven different concentrations of TKIs or DMSO vehicle were added to reach a final volume of 40 μL per well. After 72 hours, 11 μL of Cell Titer Glo (Promega) was added to each well. Plates were incubated for a minimum of 10 minutes, and bioluminescence was determined using a FLUOstar OPTIMA plate reader (BMG LABTECH). Raw bioluminescence values were normalized to DMSO control treated cells, and values were plotted in GraphPad Prism. […] Drug screens were performed in technical triplicate on each plate and either duplicate or triplicate biological replicates.
# EGFR E709_T710del insD = biological target: T1, EGFR E709_T710del insD (Homo sapiens, UniProt P00533, DEL709-709/T710D); conditions: Ba/F3 cells, EGFR E709_T710del insD (PACC), Mut/WT
# T1 construct: expressed in transfected cells; host or cells: Ba/F3
# Experimental: as §1, §2, §3
# EGFR N771dupN G724S = biological target: T2, EGFR N771dupN G724S (Homo sapiens, UniProt P00533, DUP771-771/G724S); conditions: Ex20, 72 hours
# T2 construct: expressed in transfected cells; host or cells: Ba/F3 cells, retroviral pBabe-Puro vector (vector made by GeneScript from EGFR G724S, c.2313_2314insAAC)
# Experimental: Data represent the ratio of the IC50 value for a given TKI for cells with an ex20ins EGFR mutation to the IC50 value for cells with wildtype EGFR.
# as §2
# (§4) After 48-72 hours of transduction, 2 μg/ml puromycin (Invitrogen) was added to Ba/F3 cell lines in complete RPMI. To select for EGFR positive cell lines, cells were stained with PE-EGFR (Biolegend) and sorted by FACS. After sorting, EGFR positive cells were maintained in RPMI containing 10% FBS, 1% penicillin/streptomycin, and 1 ng/ml EGF to support cell viability. Drug screening was performed as previously described^41,42. Shortly, cells were plated in 384-well plates (Greiner Bio-One) at 2000-3000 cells per well in technical triplicate. Seven different concentrations of TKIs or DMSO vehicle were added to reach a final volume of 40 μL per well. After 72 hours, 11 μL of Cell Titer Glo (Promega) was added to each well. Plates were incubated for a minimum of 10 minutes, and bioluminescence was determined using a FLUOstar OPTIMA plate reader (BMG LABTECH). Raw bioluminescence values were normalized to DMSO control treated cells, and values were plotted in GraphPad Prism. […] Drug screens were performed in technical triplicate on each plate and either duplicate or triplicate biological replicates. […] Statistical differences between groups were determined by ANOVA as described in the figure legends.
# EGFR S768I V774M = biological target: T3, EGFR S768I V774M (Homo sapiens, UniProt P00533, S768I/V774M); conditions: Ba/F3 cells, EGFR S768I V774M (PACC), Mut/WT
# T3 construct: host or cells: Ba/F3
# EGFR G719A/R776C = biological target: T4, EGFR G719A/R776C (Homo sapiens, UniProt P00533, G719A/R776C); conditions: Ba/F3 cells, EGFR G719A/R776C (PACC), Mut/WT
# T4 construct: expressed in transfected cells; host or cells: Ba/F3
# Experimental: as §1, §2, §3
# EGFR L747P = biological target: T5, EGFR L747P (Homo sapiens, UniProt P00533, L747P); conditions: Ba/F3 cells, EGFR L747P (PACC), Mut/WT
# T5 construct: expressed in transfected cells; host or cells: Ba/F3
# Experimental: as §1, §2, §4
# EGFR L858R/L792H = biological target: T6, EGFR L858R/L792H (Homo sapiens, UniProt P00533, L792H/L858R); conditions: Ba/F3 cells, EGFR L858R/L792H (PACC), Mut/WT
# T6 construct: expressed in transfected cells; host or cells: Ba/F3
# EGFR T725M = biological target: T7, EGFR T725M (Homo sapiens, UniProt P00533, T725M); conditions: Classical-Like, 72 hours
# T7 construct: expressed in transfected cells; host or cells: Ba/F3 cells, retroviral pBabe-Puro vector (vector made by GeneScript from EGFR WT)
# EGFR S768dupSVD V769M = biological target: T8, EGFR S768dupSVD V769M (Homo sapiens, UniProt P00533, INS768MDS/V769M); conditions: Ex20, 72 hours
# T8 construct: expressed in transfected cells; host or cells: Ba/F3 cells, retroviral pBabe-Puro vector (vector made by GeneScript from EGFR S768dupSVD, c.2305G > A)
# EGFR Ex19del T790M L718V = biological target: T9, EGFR Ex19del T790M L718V (Homo sapiens, UniProt P00533, DEL746-750/L718V/T790M); conditions: T790M-like-3S, 72 hours
# T9 construct: expressed in transfected cells; host or cells: Ba/F3
# Experimental: Data represent the ratio of the IC50 value for a given TKI for cells with a T790M-like-3S EGFR mutation to the IC50 value for cells with wildtype EGFR.
# as §2, §3
# EGFR S768I/V769L = biological target: T10, EGFR S768I/V769L (Homo sapiens, UniProt P00533, S768I/V769L); conditions: Ba/F3 cells, EGFR S768I/V769L (PACC), Mut/WT
# T10 construct: host or cells: Ba/F3
# EGFR L861R = biological target: T11, EGFR L861R (Homo sapiens, UniProt P00533, L861R); conditions: Classical-Like, 72 hours
# T11 construct: expressed in transfected cells; host or cells: Ba/F3 cells, retroviral pBabe-Puro vector (vector made by GeneScript from EGFR WT)
# EGFR Ex19del G724S = biological target: T12, EGFR Ex19del G724S (Homo sapiens, UniProt P00533, DEL746-750/G724S); conditions: Ba/F3 cells, EGFR Ex19del G724S (PACC), Mut/WT
# T12 construct: expressed in transfected cells; host or cells: Ba/F3
# EGFR Ex19del L718Q = biological target: T13, EGFR Ex19del L718Q (Homo sapiens, UniProt P00533, DEL746-750/L718Q); conditions: Ba/F3 cells, EGFR Ex19del L718Q (PACC), Mut/WT
# T13 construct: expressed in transfected cells; host or cells: Ba/F3
# EGFR L747S = biological target: T14, EGFR L747S (Homo sapiens, UniProt P00533, L747S); conditions: Ba/F3 cells, EGFR L747S (PACC), Mut/WT
# T14 construct: expressed in transfected cells; host or cells: Ba/F3
# EGFR L858R/T790M = biological target: T15, EGFR L858R/T790M (Homo sapiens, UniProt P00533, L858R/T790M); conditions: T790M-like-3S, 72 hours
# T15 construct: expressed in transfected cells; host or cells: Ba/F3
# EGFR L858R/V834L = biological target: T16, EGFR L858R/V834L (Homo sapiens, UniProt P00533, L858R/V834L); conditions: Classical-Like, 72 hours
# T16 construct: expressed in transfected cells; host or cells: Ba/F3 cells, retroviral pBabe-Puro vector
# Experimental: (§5) Data represent the ratio of the IC50 value for a given TKI for cells with a classical-like EGFR mutation to the IC50 value for cells with wildtype EGFR.
# as §2
# (§6) After 48-72 hours of transduction, 2 μg/ml puromycin (Invitrogen) was added to Ba/F3 cell lines in complete RPMI. To select for EGFR positive cell lines, cells were stained with PE-EGFR (Biolegend) and sorted by FACS. After sorting, EGFR positive cells were maintained in RPMI containing 10% FBS, 1% penicillin/streptomycin, and 1 ng/ml EGF to support cell viability. […] Shortly, cells were plated in 384-well plates (Greiner Bio-One) at 2000-3000 cells per well in technical triplicate. Seven different concentrations of TKIs or DMSO vehicle were added to reach a final volume of 40 μL per well. After 72 hours, 11 μL of Cell Titer Glo (Promega) was added to each well. Plates were incubated for a minimum of 10 minutes, and bioluminescence was determined using a FLUOstar OPTIMA plate reader (BMG LABTECH). Raw bioluminescence values were normalized to DMSO control treated cells, and values were plotted in GraphPad Prism. […] Drug screens were performed in technical triplicate on each plate and either duplicate or triplicate biological replicates.
# EGFR G719A L861Q = biological target: T17, EGFR G719A L861Q (Homo sapiens, UniProt P00533, G719A/L861Q); conditions: Ba/F3 cells, EGFR G719A L861Q (PACC), Mut/WT
# T17 construct: expressed in transfected cells; host or cells: Ba/F3
# EGFR G724S T790M = biological target: T18, EGFR G724S T790M (Homo sapiens, UniProt P00533, G724S/T790M); conditions: T790M-like-3R, 72 hours
# T18 construct: expressed in transfected cells; host or cells: Ba/F3
# EGFR Ex19del = biological target: T19, EGFR Ex19del (Homo sapiens, UniProt P00533, DEL746-750); conditions: Classical-Like, 72 hours
# T19 construct: expressed in transfected cells; host or cells: Ba/F3 cells, retroviral pBabe-Puro vector
# Experimental: as §5, §2, §6
# EGFR L858R = biological target: T20, EGFR L858R (Homo sapiens, UniProt P00533, L858R); conditions: Classical-Like, 72 hours
# T20 construct: expressed in transfected cells; host or cells: Ba/F3 cells, retroviral pBabe-Puro vector
# EGFR L858R/T790M/C797S = biological target: T21, EGFR L858R/T790M/C797S (Homo sapiens, UniProt P00533, C797S/L858R/T790M); conditions: T790M-like-3R, 72 hours
# T21 construct: expressed in transfected cells; host or cells: Ba/F3
# EGFR S784F = biological target: T22, EGFR S784F (Homo sapiens, UniProt P00533, S784F); conditions: Classical-Like, 72 hours
# T22 construct: expressed in transfected cells; host or cells: Ba/F3 cells, retroviral pBabe-Puro vector (vector made by GeneScript from EGFR WT)
# EGFR K754E = biological target: T23, EGFR K754E (Homo sapiens, UniProt P00533, K754E); conditions: Classical-Like, 72 hours
# T23 construct: expressed in transfected cells; host or cells: Ba/F3 cells, retroviral pBabe-Puro vector
compound,measurement,setting,value
C=CC(=O)N1CC[C@@H](Oc2nc(Nc3ccc(N4CCC(N5CCN(C)CC5)CC4)cc3)c(C(N)=O)nc2CC)C1 [Naquotinib],ratio of the IC50 value for cells with a PACC EGFR mutation to the IC50 value for cells with wildtype EGFR,EGFR I740dupIPVAK,0.5025
same,ratio of the IC50 value for cells with a PACC EGFR mutation to the IC50 value for cells with wildtype EGFR,EGFR E709_T710del insD,0.497
same,ratio of IC50 for cells with mutant EGFR to IC50 for cells with wildtype EGFR (Mut/WT),EGFR N771dupN G724S,2.781
same,ratio of the IC50 value for cells with a PACC EGFR mutation to the IC50 value for cells with wildtype EGFR,EGFR S768I V774M,0.4917
same,ratio of the IC50 value for cells with a PACC EGFR mutation to the IC50 value for cells with wildtype EGFR,EGFR G719A/R776C,0.2899
same,ratio of the IC50 value for cells with a PACC EGFR mutation to the IC50 value for cells with wildtype EGFR,EGFR L747P,3.507
same,ratio of the IC50 value for cells with a PACC EGFR mutation to the IC50 value for cells with wildtype EGFR,EGFR L858R/L792H,0.2624
same,ratio of IC50 for cells with mutant EGFR to IC50 for cells with wildtype EGFR (Mut/WT),EGFR T725M,0.5761
same,ratio of IC50 for cells with mutant EGFR to IC50 for cells with wildtype EGFR (Mut/WT),EGFR S768dupSVD V769M,1.96
same,ratio of IC50 for cells with mutant EGFR to IC50 for cells with wildtype EGFR (Mut/WT),EGFR Ex19del T790M L718V,0.02994
same,ratio of the IC50 value for cells with a PACC EGFR mutation to the IC50 value for cells with wildtype EGFR,EGFR S768I/V769L,1.734
same,ratio of IC50 for cells with mutant EGFR to IC50 for cells with wildtype EGFR (Mut/WT),EGFR L861R,0.09054
same,ratio of the IC50 value for cells with a PACC EGFR mutation to the IC50 value for cells with wildtype EGFR,EGFR Ex19del G724S,0.8866
same,ratio of the IC50 value for cells with a PACC EGFR mutation to the IC50 value for cells with wildtype EGFR,EGFR Ex19del L718Q,0.05586
same,ratio of the IC50 value for cells with a PACC EGFR mutation to the IC50 value for cells with wildtype EGFR,EGFR L747S,0.8911
same,ratio of IC50 for cells with mutant EGFR to IC50 for cells with wildtype EGFR (Mut/WT),EGFR L858R/T790M,0.01398
same,ratio of IC50 for cells with mutant EGFR to IC50 for cells with wildtype EGFR (Mut/WT),EGFR L858R/V834L,0.05339
same,ratio of the IC50 value for cells with a PACC EGFR mutation to the IC50 value for cells with wildtype EGFR,EGFR G719A L861Q,0.03136
same,ratio of IC50 for cells with mutant EGFR to IC50 for cells with wildtype EGFR (Mut/WT),EGFR G724S T790M,0.1395
same,ratio of IC50 for cells with mutant EGFR to IC50 for cells with wildtype EGFR (Mut/WT),EGFR Ex19del,0.006035
same,ratio of IC50 for cells with mutant EGFR to IC50 for cells with wildtype EGFR (Mut/WT),EGFR L858R,0.07863
same,ratio of IC50 for cells with mutant EGFR to IC50 for cells with wildtype EGFR (Mut/WT),EGFR L858R/T790M/C797S,32.29
same,ratio of IC50 for cells with mutant EGFR to IC50 for cells with wildtype EGFR (Mut/WT),EGFR S784F,0.3727
same,ratio of IC50 for cells with mutant EGFR to IC50 for cells with wildtype EGFR (Mut/WT),EGFR K754E,0.04901
